These results are taken from ChEMBL document CHEMBL4130358, “Chemoselective synthesis and biological evaluation of arylated 2-(Trifluoromethyl) quinolines as nucleotide pyrophosphatase (NPPs) inhibitors” (Eur J Med Chem, 2017).

The target of experiment [1] is T1, Ectonucleotide pyrophosphatase/phosphodiesterase family member 3 (Homo sapiens, UniProt O14638).
T1 sequence (O14638 whole entry): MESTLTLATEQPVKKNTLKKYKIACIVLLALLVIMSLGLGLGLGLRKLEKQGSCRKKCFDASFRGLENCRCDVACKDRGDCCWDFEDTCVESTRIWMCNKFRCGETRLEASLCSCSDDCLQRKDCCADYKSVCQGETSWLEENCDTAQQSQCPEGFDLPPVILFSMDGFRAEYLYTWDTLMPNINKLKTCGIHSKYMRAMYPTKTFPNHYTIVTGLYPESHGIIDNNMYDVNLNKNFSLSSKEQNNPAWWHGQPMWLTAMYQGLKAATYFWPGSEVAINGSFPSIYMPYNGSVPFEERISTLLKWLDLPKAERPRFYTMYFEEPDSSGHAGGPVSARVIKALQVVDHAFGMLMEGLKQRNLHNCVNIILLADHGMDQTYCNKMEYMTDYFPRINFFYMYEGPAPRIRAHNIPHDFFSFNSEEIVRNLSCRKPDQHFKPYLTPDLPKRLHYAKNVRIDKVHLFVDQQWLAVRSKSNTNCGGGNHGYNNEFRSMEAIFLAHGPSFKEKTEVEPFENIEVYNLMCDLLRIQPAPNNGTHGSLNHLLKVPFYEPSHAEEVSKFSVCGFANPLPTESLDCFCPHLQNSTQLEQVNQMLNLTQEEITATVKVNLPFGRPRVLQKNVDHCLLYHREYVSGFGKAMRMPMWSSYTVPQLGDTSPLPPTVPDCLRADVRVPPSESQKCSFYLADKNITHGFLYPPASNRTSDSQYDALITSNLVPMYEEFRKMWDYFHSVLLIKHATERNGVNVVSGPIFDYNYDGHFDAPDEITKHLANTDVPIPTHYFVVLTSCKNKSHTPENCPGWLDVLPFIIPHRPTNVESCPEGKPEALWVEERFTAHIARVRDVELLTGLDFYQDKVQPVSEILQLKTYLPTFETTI
The experiment in a line: Inhibition of human full length NPP3 expressed in African green monkey COS7 cell membrane fraction using p-nitrophenyl-5'-thymidine monophosphate as substrate preincubated for 10 mins followed by substrate addition measured after 30 mins.

For experiment [2], the target named is T2, Ectonucleotide pyrophosphatase/phosphodiesterase family member 1 (Homo sapiens, UniProt P22413).
T2 sequence (P22413 whole entry): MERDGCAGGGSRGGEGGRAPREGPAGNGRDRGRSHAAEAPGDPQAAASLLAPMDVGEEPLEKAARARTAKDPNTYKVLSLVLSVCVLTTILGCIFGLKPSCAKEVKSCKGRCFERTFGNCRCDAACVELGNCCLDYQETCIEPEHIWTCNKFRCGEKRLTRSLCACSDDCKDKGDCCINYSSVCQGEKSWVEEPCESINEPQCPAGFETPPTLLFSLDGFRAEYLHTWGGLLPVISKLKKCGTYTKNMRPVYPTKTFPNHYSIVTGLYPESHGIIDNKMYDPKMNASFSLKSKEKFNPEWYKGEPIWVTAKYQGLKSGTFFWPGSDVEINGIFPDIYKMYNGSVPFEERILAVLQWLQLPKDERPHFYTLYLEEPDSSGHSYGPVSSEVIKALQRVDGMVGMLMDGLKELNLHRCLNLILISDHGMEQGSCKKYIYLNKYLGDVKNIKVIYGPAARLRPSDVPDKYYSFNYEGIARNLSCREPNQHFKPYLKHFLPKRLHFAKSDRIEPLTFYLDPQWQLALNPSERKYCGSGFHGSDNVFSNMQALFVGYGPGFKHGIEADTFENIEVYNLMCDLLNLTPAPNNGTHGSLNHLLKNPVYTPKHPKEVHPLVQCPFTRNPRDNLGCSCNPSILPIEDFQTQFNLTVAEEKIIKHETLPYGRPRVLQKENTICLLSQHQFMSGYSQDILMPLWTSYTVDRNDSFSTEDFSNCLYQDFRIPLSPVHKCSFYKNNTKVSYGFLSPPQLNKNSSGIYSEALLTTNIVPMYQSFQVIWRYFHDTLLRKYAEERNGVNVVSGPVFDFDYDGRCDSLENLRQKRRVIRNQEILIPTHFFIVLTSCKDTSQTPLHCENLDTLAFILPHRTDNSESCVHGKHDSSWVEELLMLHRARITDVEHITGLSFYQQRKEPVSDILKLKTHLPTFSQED
The experiment in a line: Inhibition of human full length NPP1 expressed in African green monkey COS7 cell membrane fraction using p-nitrophenyl-5'-thymidine monophosphate as substrate preincubated for 10 mins followed by substrate addition measured after 30 mins.

The target in experiment [3] is T3, Ectonucleoside triphosphate diphosphohydrolase 8 (Homo sapiens, UniProt Q5MY95).
T3 sequence (Q5MY95 whole entry): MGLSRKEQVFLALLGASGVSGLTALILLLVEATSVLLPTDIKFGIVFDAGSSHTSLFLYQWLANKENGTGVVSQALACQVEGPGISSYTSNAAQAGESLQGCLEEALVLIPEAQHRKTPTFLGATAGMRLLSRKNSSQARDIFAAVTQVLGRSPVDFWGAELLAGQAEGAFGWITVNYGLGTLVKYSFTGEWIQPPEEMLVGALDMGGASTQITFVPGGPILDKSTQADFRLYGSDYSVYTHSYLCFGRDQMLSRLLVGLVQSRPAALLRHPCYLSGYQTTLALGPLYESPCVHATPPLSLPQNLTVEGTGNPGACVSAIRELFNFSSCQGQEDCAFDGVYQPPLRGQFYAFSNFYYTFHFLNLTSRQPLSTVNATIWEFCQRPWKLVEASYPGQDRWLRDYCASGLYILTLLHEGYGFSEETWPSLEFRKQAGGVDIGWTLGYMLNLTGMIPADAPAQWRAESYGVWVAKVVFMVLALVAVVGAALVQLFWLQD
The experiment in a line: Inhibition of human NTPDase8 expressed in African green monkey COS7 cell membrane fraction using ATP as substrate preincubated for 10 mins followed by substrate addition measured after 10 mins by malachite green reagent-based assay.

Experiment [4] addresses T4, Ectonucleoside triphosphate diphosphohydrolase 1 (Homo sapiens, UniProt P49961).
T4 sequence (P49961 whole entry): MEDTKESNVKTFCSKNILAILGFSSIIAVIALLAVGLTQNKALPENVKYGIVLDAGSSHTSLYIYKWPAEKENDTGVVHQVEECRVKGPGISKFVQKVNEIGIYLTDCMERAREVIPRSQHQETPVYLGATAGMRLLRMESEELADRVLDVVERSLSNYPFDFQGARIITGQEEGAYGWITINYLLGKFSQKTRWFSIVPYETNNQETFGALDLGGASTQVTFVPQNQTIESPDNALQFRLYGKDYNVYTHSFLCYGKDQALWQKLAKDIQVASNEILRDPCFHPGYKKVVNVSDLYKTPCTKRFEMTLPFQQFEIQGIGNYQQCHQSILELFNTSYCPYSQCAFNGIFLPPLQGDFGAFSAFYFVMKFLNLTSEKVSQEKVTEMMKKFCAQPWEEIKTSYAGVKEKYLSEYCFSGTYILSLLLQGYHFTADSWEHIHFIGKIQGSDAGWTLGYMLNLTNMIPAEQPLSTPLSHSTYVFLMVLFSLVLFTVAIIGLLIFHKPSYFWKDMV
The experiment in a line: Inhibition of human NTPDase1 expressed in African green monkey COS7 cell membrane fraction using ATP as substrate preincubated for 10 mins followed by substrate addition measured after 10 mins by malachite green reagent-based assay.

The target of experiment [5] is T5, Ectonucleoside triphosphate diphosphohydrolase 3 (Homo sapiens, UniProt O75355).
T5 sequence (O75355 whole entry): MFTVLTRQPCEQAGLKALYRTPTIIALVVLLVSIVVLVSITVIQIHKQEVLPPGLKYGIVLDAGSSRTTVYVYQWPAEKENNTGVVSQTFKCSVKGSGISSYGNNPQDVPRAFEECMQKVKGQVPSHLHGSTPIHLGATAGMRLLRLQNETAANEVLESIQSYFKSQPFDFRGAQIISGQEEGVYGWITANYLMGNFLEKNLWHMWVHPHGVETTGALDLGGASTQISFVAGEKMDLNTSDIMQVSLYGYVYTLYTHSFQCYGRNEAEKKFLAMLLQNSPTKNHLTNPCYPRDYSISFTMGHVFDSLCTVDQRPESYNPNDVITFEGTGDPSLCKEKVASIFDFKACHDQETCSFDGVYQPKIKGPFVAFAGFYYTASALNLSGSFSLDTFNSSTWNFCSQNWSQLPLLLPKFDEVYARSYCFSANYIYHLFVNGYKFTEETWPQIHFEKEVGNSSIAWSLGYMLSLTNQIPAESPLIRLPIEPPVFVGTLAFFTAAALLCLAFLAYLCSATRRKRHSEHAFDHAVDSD
The experiment in a line: Inhibition of human NTPDase3 expressed in African green monkey COS7 cell membrane fraction using ATP as substrate preincubated for 10 mins followed by substrate addition measured after 10 mins by malachite green reagent-based assay.

Experiment [6] addresses T6, Ectonucleoside triphosphate diphosphohydrolase 2 (Homo sapiens, UniProt Q9Y5L3).
T6 sequence (Q9Y5L3 whole entry): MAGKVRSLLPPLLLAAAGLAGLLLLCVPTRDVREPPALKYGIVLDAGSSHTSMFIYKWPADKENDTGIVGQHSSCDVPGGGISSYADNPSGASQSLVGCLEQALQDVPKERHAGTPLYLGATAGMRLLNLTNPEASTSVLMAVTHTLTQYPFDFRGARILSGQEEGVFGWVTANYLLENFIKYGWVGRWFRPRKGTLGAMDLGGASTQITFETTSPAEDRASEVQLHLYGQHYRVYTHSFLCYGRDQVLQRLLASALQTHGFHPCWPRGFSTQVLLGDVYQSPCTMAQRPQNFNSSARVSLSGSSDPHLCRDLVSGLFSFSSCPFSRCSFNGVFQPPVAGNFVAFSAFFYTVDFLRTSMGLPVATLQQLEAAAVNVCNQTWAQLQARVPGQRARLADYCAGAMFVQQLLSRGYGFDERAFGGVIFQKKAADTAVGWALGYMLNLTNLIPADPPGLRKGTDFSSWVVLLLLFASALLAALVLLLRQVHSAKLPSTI
The experiment in a line: Inhibition of human NTPDase2 expressed in African green monkey COS7 cell membrane fraction using ATP as substrate preincubated for 10 mins followed by substrate addition measured after 10 mins by malachite green reagent-based assay.

With `FC(F)(F)c1nc2c(Br)cccc2c(Cl)c1Br`, the values for the half-inhibitory concentration (IC50) in experiment [1] and in experiment [2] were 0.39 µM and 7.65 µM, respectively.
For `COc1ccc(-c2cccc3c(Cl)c(Br)c(C(F)(F)F)nc23)cc1` the same measures were 1.14 µM and 0.39 µM.
`Cc1ccc(C(=O)Nc2ccc(S(=O)(=O)O)c3cc(S(=O)(=O)O)cc(S(=O)(=O)O)c23)cc1NC(=O)c1cccc(NC(=O)Nc2cccc(C(=O)Nc3cc(C(=O)Nc4ccc(S(=O)(=O)O)c5cc(S(=O)(=O)O)cc(S(=O)(=O)O)c45)ccc3C)c2)c1` [SURAMIN] registered an IC50 in experiment [3] greater than 100 µM.
For the compound `N#Cc1cccc(-c2cccc3c(Cl)c(Br)c(C(F)(F)F)nc23)c1`, the IC50 is greater than 100 µM in experiment [1] and 0.35 µM in experiment [2].
The corresponding values for `Cc1ccc(-c2c(C(F)(F)F)nc3c(-c4ccc(C)cc4)cccc3c2-c2ccc(C)cc2)cc1` are greater than 100 µM and 0.73 µM.
For `FC(F)(F)c1nc2c(-c3ccccc3)cccc2c(-c2ccccc2)c1-c1ccccc1` the same measures were greater than 100 µM and 0.18 µM.
The corresponding values for `O=c1c(Br)c(C(F)(F)F)[nH]c2c(Br)cccc12` are 2.42 µM and 0.63 µM.
For `COc1ccc(OC)c(-c2cccc3c(Cl)c(Br)c(C(F)(F)F)nc23)c1`, the figures for the IC50 in experiment [1] and in experiment [2] were 0.36 µM and 0.25 µM, respectively.
For `Fc1ccc(-c2c(C(F)(F)F)nc3c(-c4ccc(F)cc4)cccc3c2-c2ccc(F)cc2)cc1` the same measures were greater than 100 µM and 0.51 µM.
The corresponding values for `FC(F)(F)c1ccc(-c2cccc3c(Cl)c(Br)c(C(F)(F)F)nc23)cc1` are greater than 100 µM and 0.31 µM.
Consider `COc1ccc(-c2c(C(F)(F)F)nc3c(-c4ccc(OC)cc4)cccc3c2-c2ccc(OC)cc2)cc1`, for which the half-inhibitory concentration (IC50) in experiment [4] was greater than 300 µM; in experiment [5], greater than 300 µM; in experiment [1] it was greater than 100 µM; in experiment [6], greater than 300 µM; in experiment [2] it was 9.87 µM; in experiment [3], greater than 300 µM.
On to `FC(F)(F)c1nc2c(-c3ccsc3)cccc2c(Cl)c1Br`, for which the concentration for half-maximal inhibition (IC50) in experiment [4] was greater than 300 µM; in experiment [5], greater than 300 µM; in experiment [1] it was greater than 100 µM; in experiment [6] it was greater than 300 µM; in experiment [2], 5.76 µM; in experiment [3], greater than 300 µM.
Take `FC(F)(F)c1nc2c(-c3ccccc3)cccc2c(Cl)c1-c1ccccc1`: the half-inhibitory concentration (IC50) was greater than 300 µM in experiment [4]; greater than 300 µM in experiment [5]; greater than 100 µM in experiment [1]; greater than 300 µM in experiment [6]; 2.81 µM in experiment [2]; greater than 300 µM in experiment [3].
Consider `Cc1cccc(-c2c(C(F)(F)F)nc3c(-c4cccc(C)c4)cccc3c2-c2cccc(C)c2)c1`, for which the concentration for half-maximal inhibition (IC50) in experiment [4] is greater than 300 µM; in experiment [5], greater than 300 µM; in experiment [1] it was greater than 100 µM; in experiment [6], greater than 300 µM; in experiment [2], 20.7 µM; in experiment [3], greater than 300 µM.

By IC50 is commonly meant the concentration needed to halve the response being measured.
